Source: patent publication US11007208B2 (priority 2015, dated 2021)
Read-outs that look alike come from different tables or passages of the source.

Columns and labels:
MERS-CoV [1] = experiment: microbe, parasite or virus in culture; assay type: cell-based; conditions: Middle East respiratory syndrome-related coronavirus, HAE, read-out: EC50 MERS (HAE)
Junin virus [2] = experiment: microbe, parasite or virus in culture; assay type: cell-based; conditions: Mammarenavirus juninense, Vero; for EC90: read-out: EC90 Junin Vero
in vitro [3] = conditions: human
in vitro [4] = conditions: human; remark: listed apart in the source
SARS-CoV [5] = experiment: microbe, parasite or virus in culture; assay type: cell-based; conditions: Severe acute respiratory syndrome coronavirus, HAE, read-out: EC50 SARS (HAE)
Junin virus [6] = experiment: microbe, parasite or virus in culture; assay type: cell-based; conditions: Mammarenavirus juninense, HeLa; for EC50: read-out: EC50 HCS Junin HeLa; for EC90: read-out: EC90 HCS Junin HeLa
[7] = system: MERS-CoV (Strain Jordan N3); experiment: microbe, parasite or virus in culture; assay type: cell-based; conditions: Middle East respiratory syndrome-related coronavirus, Vero, read-out: EC50 MERS-CoV Vero
Lassa virus = experiment: microbe, parasite or virus in culture; assay type: cell-based; conditions: Mammarenavirus lassaense, HeLa; for EC50: read-out: EC50 HCS Lassa HeLa; for EC90: read-out: EC90 HCS Lassa HeLa
SARS-CoV [8] = experiment: microbe, parasite or virus in culture; assay type: cell-based; conditions: Severe acute respiratory syndrome coronavirus, Calu-3 2B4, read-out: EC50 SARS (Calu-3)
[9] = mouse, in vivo
[10] = system: MERS-CoV isolate HCoV-EMC/2012; set-up: species or system rhesus monkeys; conditions: rhesus monkey, in vivo
SARS-CoV [11] = system: SARS-CoV; set-up: species or system mice; conditions: mouse, in vivo
MERS-CoV [12] = experiment: microbe, parasite or virus in culture; assay type: cell-based; conditions: Middle East respiratory syndrome-related coronavirus, Calu-3 2B4, read-out: EC50 MERS (Calu-3)

| SMILES | EC50 (MERS-CoV [1]) | EC90 (Junin virus [2]) | CC50 (in vitro [3]) | CC50 (in vitro [4]) | EC50 (SARS-CoV [5]) | EC50 (Junin virus [6]) | EC90 (Junin virus [6]) | EC50 [7] | EC50 (Lassa virus) | EC90 (Lassa virus) | further results |
| --- | --- | --- | --- | --- | --- | --- | --- | --- | --- | --- | --- |
| N#C[C@@]1(c2ccc3c(N)ncnn23)O[C@H](CO)[C@@H](O)[C@H]1O [Compound 1, (2R,3R, 4S, 5R)-2-(4-aminopyrrolo[1,2-f][1,2,4]triazin-7-yl)-3,4-dihydroxy-5-(hydroxymethyl)tetrahydrofuran-2-carbonitrile] | 460 nM | > 47000 nM | > 100000 nM | > 100000 nM | 220 nM |  |  |  |  |  |  |
| CCC(CC)COC(=O)[C@H](C)NP(=O)(OC[C@H]1O[C@@](C#N)(c2ccc3c(N)ncnn23)[C@H](O)[C@@H]1O)Oc1ccccc1 (stereo partly drawn) [Compound 9, (2S)-2-ethylbutyl 2-((((2R,3S,4R,5R)-5-(4-aminopyrrolo[1,2-f][1,2,4]triazin-7-yl)-5-cyano-3,4-dihydroxytetrahydrofuran-2-yl)methoxy)(phenoxy)phosphorylamino)propanoate] |  | > 47000 nM |  |  |  | 490 nM | 1250 nM | 460 nM | 2000 nM | 4210 nM | EC50 (Junin virus [2]; read-out: EC50 Junin Vero): > 47000 nM |
| CCC(CC)COC(=O)[C@H](C)N[P@](=O)(OC[C@H]1O[C@@](C#N)(c2ccc3c(N)ncnn23)[C@H](O)[C@@H]1O)Oc1ccccc1 [Compound 32, (S)-2-ethylbutyl 2-(((S)-(((2R,3S,4R,5R)-5-(4-aminopyrrolo[2,1-f][1,2,4]triazin-7-yl)-5-cyano-3,4-dihydroxytetrahydrofuran-2-yl)methoxy)(phenoxy)phosphoryl)amino)propanoate] | 74 nM |  | > 10000 nM | > 10000 nM | 69 nM | 470 nM | 1260 nM | 580 nM | 1650 nM | 3310 nM | EC50 (SARS-CoV [8]): 10 nM; Plasma stability [9]: improved the plasma stability; Respiration rates [10]: tended to be higher at Day 6 in vehicle-treated animals; Viral RNA in the liver, spleen, kidney and bladder tissue [10]: below the limit of detection; Viral RNA in the mediastinal lymph node [10]: detected in all animals; Viral RNA in the respiratory tract [10]: significantly reduced; Viral load in nose swabs and throat swabs [10]: no difference in viral load; Body weight and body temperature during the course of the infection ([10]; iv, 10 mg/kg): did not change appreciably; Cumulative clinical scores ([10]; iv, 10 mg/kg): notably higher in vehicle-treated animals; Disease symptoms ([10]; iv, 10 mg/kg): less pronounced; Changes in body weight post infection (SARS-CoV [11]): no evidence of weight loss; Expiration Time and End Expiratory Pause (whole body plethysmography) (SARS-CoV [11]): reduced; Infectious virus in lung tissue by plaque assay (SARS-CoV [11]): significantly decreased; Penh values (whole body plethysmography) (SARS-CoV [11]): lower compared to vehicle-treated animals; EC50 (MERS-CoV [12]): 30 nM |
